# Reference: patent publication US20250129012A1, “ANTI-INFLAMMATORY AND ANALGESIC COMPOUNDS AND USE THEREOF” (JIANGSU ATOM BIOSCIENCE AND PHARMACEUTICAL CO., LTD., priority 2021, published 2025)
# Marks after values point to notes of the source that are not given here.
# Tests used:
# Type in all cases: in vivo, SD rats
# [1] = system: gouty arthritis in rats (urate crystals, left ankle joint); test: Pharmacodynamics experiment A on gouty arthritis in rats: paw volume; conditions: for Paw volume versus model group, in words: time points after modeling; for Paw volume: Mean ± SEM
# Experimental: (§1) Compounds 2, 17, 26 and 27 were prepared by grinding with 0.5% CMC-Na into a suspension of the corresponding concentration (0.06 mg/mL) for gavage before administration, and the volume of administration was 10 mL/kg. […] Before use, 0.5% CMC-Na was used for grinding and prepared into a suspension of the corresponding concentration (0.06 mg/mL) for gavage, and the volume of drug administered was 10 mL/kg.
# (§2) Each group of subjects was prepared into a suspension of the corresponding concentration, and the administration volume was 10 mL/kg.
# (§3) The crystalline arthritis model was prepared by intra-articular injection of urate crystals (40 mg/mL, in the left ankle joint of each rat). Different doses of the test drug were given separately by gavage administration. The day of administration was defined as day 1 of the experiment, and the drug was administered once a day for 10 consecutive days (pre-administration of the drug for 7 days prior to modeling, modeling on day 8, and continuation of the drug for 3 days). The experiment ended on day 10.
# Paw volume was measured before administration, before urate injection, and 2, 4, 8, 10, 24, and 48 h after injection.
# (§4) The data obtained from the experiment were statistically analyzed using IBM SPSS Statistics 22.0. All measurements were expressed as Mean±S.E.M s. The data were analyzed using SPSS 22.0 statistical software and variance chi-square test was performed on the parameters.
# [2] = system: gouty arthritis in rats (urate crystals, left ankle joint); test: Pharmacodynamics experiment A on gouty arthritis in rats: pain score; set-up: Pain score: scale not given here; conditions: 0.6 mg/kg gavage; for Pain versus model group, in words: time points after modeling, P<0.05 or P<0.01; for Pain score: Mean ± SEM
# Experimental: as §1, §2, §3
# The pain level was scored using the flexion and extension joint pain test scoring method at the same time point.
# as §4
# [3] = system: gouty arthritis in rats (urate crystals, left ankle joint); test: Pharmacodynamics experiment A on gouty arthritis in rats: gait score; set-up: Gait Score: scale not given here; conditions: 0.6 mg/kg gavage; for Gait versus model group, in words: time points after modeling, P<0.05 or P<0.01; for Gait Score: Mean ± SEM
# Experimental: as §1, §2, §3
# The degree of lameness of the modeled joints was observed and scored at the same time point.
# as §4
# [4] = system: IL-1β; test: Inflammatory factor experiment B: IL-1β in knee synovial tissue (ELISA); conditions: Rattus norvegicus, po, 48 h, read-out: IL-1β percentage decrease %
# [5] = system: IL-6; test: Inflammatory factor experiment B: IL-6 in knee synovial tissue (ELISA); conditions: Rattus norvegicus, po, 48 h, read-out: IL-6 percentage decrease %
# [6] = system: TNF-α; test: Inflammatory factor experiment B: TNF-α in knee synovial tissue (ELISA); conditions: Rattus norvegicus, po, 48 h, read-out: TNF-α percentage decrease %
# [7] = 2 h after modeling, 0.6 mg/kg gavage
# [8] = 4 h after modeling, 0.6 mg/kg gavage
# [9] = 8 h after modeling, 0.6 mg/kg gavage
# [10] = 10 h after modeling, 0.6 mg/kg gavage
# [11] = 24 h after modeling, 0.6 mg/kg gavage
# [12] = 48 h after modeling, 0.6 mg/kg gavage
# [13] = before modeling, 0.6 mg/kg gavage once a day
Structure (SMILES),"Paw volume versus model group, in words ([1]; 0.6 mg/kg gavage)","Paw volume [1, 7]","Paw volume [1, 8]","Paw volume [1, 9]","Paw volume [1, 10]","Paw volume [1, 11] [cm^3]","Paw volume [1, 12]","Paw volume [1, 13] [cm^3]","Pain versus model group, in words [2]",Pain score ([2]; 2 h after modeling),Pain score ([2]; 4 h after modeling),Pain score ([2]; 8 h after modeling),Pain score ([2]; 10 h after modeling),Pain score ([2]; 24 h after modeling),Pain score ([2]; 48 h after modeling),Pain score ([2]; before modeling),"Gait versus model group, in words [3]",Gait Score ([3]; 2 h after modeling),Gait Score ([3]; 4 h after modeling),Gait Score ([3]; 8 h after modeling),also measured
"COc1cc2c(c(OC)c1OC)-c1ccc(NS(C)(=O)=O)c(=O)cc1[C@@H](NC(C)=O)CC2 [Compound 2, (S)—N-(1,2,3-trimethoxy-10-methanesulfonylamino-9-oxo-5,6,7,9-tetrahydrobenzo[a]heptalen-7-yl)acetamide]","significantly reduce the paw volume at 2 h, 4 h, and 48 h",2.51 ± 0.06* cm^3,2.54 ± 0.04* cm^3,2.63 ± 0.06 cm^3,2.59 ± 0.07 cm^3,2.52 ± 0.08,2.35 ± 0.06* cm^3,2.18 ± 0.02,"significantly improved pain at 2 h, 4 h, 8 h, 10 h, 24 h, and 48 h",2.70 ± 0.68,1.30 ± 0.52,3.30 ± 0.54,2.20 ± 0.68,1.30 ± 0.62,1.00 ± 0.67,0.00 ± 0.00,"significantly improved the gait at 2 h, 8 h, 24 h, and 48 h",1.10 ± 0.10,1.10 ± 0.10,1.10 ± 0.10,Gait Score ([3]; 10 h after modeling): 1.20 ± 0.13; Gait Score ([3]; 24 h after modeling): 1.00 ± 0.00; Gait Score ([3]; 48 h after modeling): 1.00 ± 0.00; Gait Score ([3]; before modeling): 0.00 ± 0.00
"COc1cc2c(c(OC)c1OC)-c1ccc(=O)c(OC3CCOC3)cc1[C@@H](NC(C)=O)CC2 (stereo partly drawn) [Compound 27, (S)—N-(1,2,3-trimethoxy-10-oxo-9-[(tetrahydrofuran-3-yl)oxy]-5,6,7,10-tetrahydrobenzo[a]heptalen-7-yl)acetamide]","significantly reduce the paw volume at 2 h, 4 h, 8 h, 10 h, and 48 h",2.51 ± 0.04** cm^3,2.54 ± 0.03* cm^3,2.57 ± 0.04* cm^3,2.55 ± 0.04* cm^3,2.50 ± 0.07,2.29 ± 0.04** cm^3,2.16 ± 0.04,"significantly improved gait at 2 h, 8 h, 10 h, 24 h, and 48 h",2.00 ± 0.67,2.80 ± 0.68,3.30 ± 0.47,2.50 ± 0.65,1.50 ± 0.60,1.00 ± 0.60,0.00 ± 0.00,"significantly improved the gait at 2 h, 24 h, and 48 h",1.00 ± 0.00,1.10 ± 0.10,1.40 ± 0.22,Gait Score ([3]; 10 h after modeling): 1.20 ± 0.20; Gait Score ([3]; 24 h after modeling): 1.00 ± 0.00; Gait Score ([3]; 48 h after modeling): 1.00 ± 0.00; Gait Score ([3]; before modeling): 0.00 ± 0.00
"COc1cc2c(c(OC)c1OC)-c1ccc(C(=O)N3CCC[C@H]3C#N)c(=O)cc1[C@@H](NC(C)=O)CC2 [Compound 60, N—{(S)-10-[(S)-2-cyanopyrrolidin-1-carbonyl]-1,2,3-trimethoxy-9-oxo-5,6,7,9-tetrahydrobenzo[a]heptalen-7-yl}acetamide]",,,,,,,,,,,,,,,,,,,,,inhibition in vivo at 0.6 mg/kg [4]: 76.1%; inhibition in vivo at 0.6 mg/kg [5]: 59.5%; inhibition in vivo at 0.6 mg/kg [6]: 85.8%
